By DC50 is commonly meant the midpoint of the concentration-degradation curve. As a reminder, the Emax is the maximal effect, on the per cent scale that the assay sets.

The structures appear in SMILES notation.

Consider 14 compounds from patent publication US20250325677A1, “STAT6 DEGRADERS” (Gilead Sciences, Inc., priority 2024, published 2025).

STAT6, sequence (P42226 whole entry): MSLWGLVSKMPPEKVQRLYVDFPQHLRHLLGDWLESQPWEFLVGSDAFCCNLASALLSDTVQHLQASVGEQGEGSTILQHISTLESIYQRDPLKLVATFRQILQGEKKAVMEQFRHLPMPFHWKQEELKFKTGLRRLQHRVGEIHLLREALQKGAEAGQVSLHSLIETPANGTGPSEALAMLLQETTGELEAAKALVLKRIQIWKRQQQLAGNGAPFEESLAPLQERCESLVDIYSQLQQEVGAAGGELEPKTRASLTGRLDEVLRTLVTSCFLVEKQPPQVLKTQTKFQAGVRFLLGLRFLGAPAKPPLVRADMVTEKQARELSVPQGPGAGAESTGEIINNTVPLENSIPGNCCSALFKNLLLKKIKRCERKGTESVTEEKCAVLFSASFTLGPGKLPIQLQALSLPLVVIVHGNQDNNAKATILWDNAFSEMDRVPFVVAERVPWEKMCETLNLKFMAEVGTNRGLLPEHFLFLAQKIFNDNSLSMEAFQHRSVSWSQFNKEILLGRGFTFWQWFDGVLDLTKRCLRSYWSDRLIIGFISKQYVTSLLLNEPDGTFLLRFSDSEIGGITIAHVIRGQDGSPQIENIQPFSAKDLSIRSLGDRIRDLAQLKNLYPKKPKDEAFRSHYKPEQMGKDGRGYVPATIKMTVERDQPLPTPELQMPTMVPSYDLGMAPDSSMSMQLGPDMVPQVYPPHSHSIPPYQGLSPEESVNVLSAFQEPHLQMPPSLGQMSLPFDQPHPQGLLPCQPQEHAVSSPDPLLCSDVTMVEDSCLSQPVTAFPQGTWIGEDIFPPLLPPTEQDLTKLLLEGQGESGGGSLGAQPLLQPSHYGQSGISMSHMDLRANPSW

One experiment has as its target STAT6 (Homo sapiens (Human), UniProt P42226). Description: STAT6 degrader assay (HiBiT, HeLa LgBiT clone 4.14). It is filed as cell-based. Particulars: HeLa LgBiT clone 4.14, 4-24 h; geometric mean; given for compounds with >80% Emax; read-out: STAT6 degradation DC50. The method, then: This was a HiBit based assay. A HeLa cell line stably transfected with a small protein, LgBit (Large Bit) was obtained from Promega. These cells express endogenous STAT6. A small 11 amino acid gene sequence (HiBiT) was inserted in the STAT6 gene using CRISPR technology. Once STAT6 protein is expressed in the cells, the HiBiT sequence will bind the LgBit in the cells resulting in a functional NanoBiT protein, giving a luminescent tag to STAT6, see FIG. 2.
Single cell clones were prepared and the clone 4.14 was selected for the assay based on that clone showing high luminescence, high STAT6 phosphorylation upon stimulation with IL-4, and inhibition of luminescence when cells were treated with STAT6 siRNA.
HeLa LgBiT clone 4.14 cells were suspended in DMEM with 10% FCS, 1% Pen/Strep, Na-pyrovate and Hygromycin B, at a concentration of 1.25*105 cells pr mL. 5000 cells were added pr well of a 384 well plate and 20 nL of compound was added by Echo® liquid handler. NN6394A (terfenadine, a toxic compound) was added to control wells at 50 μM concentration to establish the assay window. In these wells the cells are dead which equals 100% degradation of STAT6.
After 4-24 h of incubation at 37° C. under 5% CO2/95% air, 5 μL substrate (Nano-GLO®) was added to the wells and the plates were centrifuged and incubated for 0.5 h.
The luminescence in the wells as a measure of non-degraded STAT6 was measured in a plate reader (BMG Pherastar FSX). The measured DC50 (in nM) was determined.
The dose-response curves Examples 3p1, 3e50, 3e17, and 3e51 are shown below (where percent degradation is plotted vs. test compound concentration in M on a log-scale).
On the technique in general: HiBiT is a short tag that completes a luciferase, so light tracks the accessible tagged protein.
With `Cc1cc(C(=O)N2CCC(CN3CCN(Cc4ccc5c(c4)n(C4CC4)c(=O)n5C4CCC(=O)NC4=O)C[C@@H]3C)CC2)cc(F)c1C1=CCN([C@@H](C)c2cc3c(-c4ccc(N)nc4)ccnc3n2C)CC1` (stereo partly drawn) [Example 3h15, 3-(5-(((S)-4-((1-(4-(1-((S)-1-(4-(6-aminopyridin-3-yl)-1-methyl-1H-pyrrolo[2,3-b]pyridin-2-yl)ethyl)-1,2,3,6-tetrahydropyridin-4-yl)-3-fluoro-5-methylbenzoyl)piperidin-4-yl)methyl)-3-methyl-piperazin-1-yl)methyl)-3-cyclopropyl-2-oxo-2,3-dihydro-1H-benzo[d]imidazol-1-yl)piperidine-2,6-dione], the DC50 worked out at 1.1 nM.

On to `CNc1ccc(-c2ccnc3c2cc([C@H](C)N2CCC(c4ccc(C(=O)N5CCC(CN6CCN(Cc7cc8c(cc7F)n(C7CCC(=O)NC7=O)c(=O)n8C)C[C@@H]6C)CC5)cc4)CC2)n3C)cn1` (stereo partly drawn) [Example 3h21, 3-(6-fluoro-3-methyl-5-(((S)-3-methyl-4-((1-(4-(1-((S)-1-(1-methyl-4-(6-(methylamino)pyridin-3-yl)-1H-pyrrolo[2,3-b]pyridin-2-yl)ethyl)piperidin-4-yl)benzoyl)piperidin-4-yl)methyl)piperazin-1-yl)methyl)-2-oxo-2,3-dihydro-1H-benzo[d]imidazol-1-yl)piperidine-2,6-dione], for which the DC50 stood at 1 nM.

Consider `CNc1ccc(-c2ccnc3c2cc([C@H](C)N2CCC(c4ccc(C(=O)N5CCC(CN6CCN(Cc7cc8c(cc7F)n([C@@H]7CCC(=O)NC7=O)c(=O)n8C)C[C@@H]6C)CC5)cc4)CC2)n3C)cn1` [Example 3h22, (R)-3-(6-fluoro-3-methyl-5-(((S)-3-methyl-4-((1-(4-(1-((S)-1-(1-methyl-4-(6-(methylamino)pyridin-3-yl)-1H-pyrrolo[2,3-b]pyridin-2-yl)ethyl)piperidin-4-yl)benzoyl)piperidin-4-yl)methyl)piperazin-1-yl)methyl)-2-oxo-2,3-dihydro-1H-benzo[d]imidazol-1-yl)piperidine-2,6-dione], for which the DC50 turned out to be 0.9 nM.

For the compound `CNc1ccc(-c2ccnc3c2cc([C@H](C)N2CCC(c4ccc(C(=O)N5CCC(CN6CCN(Cc7cc8c(cc7F)n([C@H]7CCC(=O)NC7=O)c(=O)n8C)C[C@@H]6C)CC5)cc4)CC2)n3C)cn1` [Example 3h23, (S)-3-(6-fluoro-3-methyl-5-(((S)-3-methyl-4-((1-(4-(1-((S)-1-(1-methyl-4-(6-(methylamino)pyridin-3-yl)-1H-pyrrolo[2,3-b]pyridin-2-yl)ethyl)piperidin-4-yl)benzoyl)piperidin-4-yl)methyl)piperazin-1-yl)methyl)-2-oxo-2,3-dihydro-1H-benzo[d]imidazol-1-yl)piperidine-2,6-dione], the DC50 came out at 1.5 nM.

Turning to `Cc1cc(C(=O)N(C)c2ccc(C3CCN(Cc4ccc5c(c4)n(C)c(=O)n5C4CCC(=O)NC4=O)CC3)cc2)cc(F)c1C1=CCN(Cc2cc3c(-c4ccc(N)nc4)ccnc3n2C)CC1` (centres unmarked) [Example 3h39, 4-(1-((4-(6-aminopyridin-3-yl)-1-methyl-1H-pyrrolo[2,3-b]pyridin-2-yl)methyl)-1,2,3,6-tetrahydropyridin-4-yl)-N-(4-(1-((1-(2,6-dioxopiperidin-3-yl)-3-methyl-2-oxo-2,3-dihydro-1H-benzo[d]imidazol-5-yl)methyl)piperidin-4-yl)phenyl)-3-fluoro-N,5-dimethylbenzamide], the DC50 came out at 0.1 nM.

As to `Cn1c(CN2CCC(c3ccc(C(=O)N4CCC(CCn5cc(-c6cccc7c6n(C)c(=O)n7C6CCC(=O)NC6=O)cn5)CC4)cc3)CC2)cc2c(-c3ccc4[nH]ncc4c3)ccnc21` (centres unmarked) [Example 3l2, 3-(4-(1-(2-(1-(4-(1-((4-(1H-indazol-5-yl)-1-methyl-1H-pyrrolo[2,3-b]pyridin-2-yl)methyl)-piperidin-4-yl)benzoyl)piperidin-4-yl)ethyl)-1H-pyrazol-4-yl)-3-methyl-2-oxo-2,3-dihydro-1H-benzo[d]-imidazol-1-yl)piperidine-2,6-dione], the DC50 is 3 nM.

Staying with this experiment, now noted: HeLa LgBiT clone 4.14, 4-24 h; read-out: STAT6 degradation Emax (%).
With `CNc1ccc(-c2ccnc3c2cc([C@H](C)N2CC=C(c4c(C)cc(C(=O)N5CCC(CN6CCN(c7ccc8c(c7)C7(CC7)C(=O)N8C7CCC(=O)NC7=O)C[C@@H]6C)CC5)cc4F)CC2)n3C)cn1` (stereo partly drawn) [Example 3h19, 3-(5′-((S)-4-((1-(3-fluoro-5-methyl-4-(1-((S)-1-(1-methyl-4-(6-(methylamino)pyridin-3-yl)-1H-pyrrolo[2,3-b]pyridin-2-yl)ethyl)-1,2,3,6-tetrahydropyridin-4-yl)benzoyl)piperidin-4-yl)methyl)-3-methylpiperazin-1-yl)-2′-oxospiro[cyclopropane-1,3′-indolin]-1′-yl)piperidine-2,6-dione], the Emax is 40 to 50%.

For `C[C@H]1CN(Cc2ccc3c(c2)n(C2CC2)c(=O)n3C2CCC(=O)N(C)C2=O)CCN1CC1CCN(C(=O)c2ccc(C3CCN([C@@H](C)c4cc5c(-c6ccc(N)nc6)ccnc5n4C)CC3)cc2)CC1` (stereo partly drawn) [Example 3h28, 3-(5-(((S)-4-((1-(4-(1-((S)-1-(4-(6-aminopyridin-3-yl)-1-methyl-1H-pyrrolo[2,3-b]pyridin-2-yl)ethyl)piperidin-4-yl)benzoyl)piperidin-4-yl)methyl)-3-methylpiperazin-1-yl)methyl)-3-cyclopropyl-2-oxo-2,3-dihydro-1H-benzo[d]imidazol-1-yl)-1-methylpiperidine-2,6-dione], the maximal effect (Emax) lay within 20 to 30%.

Consider `CNc1ccc(-c2ccnc3c2cc(CN2CCC(c4c(F)cc(C(=O)N5CCC(CN6CCN(c7cc8c(cc7F)n(C7CCC(=O)NC7=O)c(=O)n8C)CC6)CC5)cc4F)CC2)n3C)cn1` (centres unmarked) [Example 3h49, 3-(5-(4-((1-(3,5-difluoro-4-(1-((1-methyl-4-(6-(methylamino)pyridin-3-yl)-1H-pyrrolo[2,3-b]pyridin-2-yl)methyl)piperidin-4-yl)benzoyl)piperidin-4-yl)methyl)piperazin-1-yl)-6-fluoro-3-methyl-2-oxo-2,3-dihydro-1H-benzo[d]imidazol-1-yl)piperidine-2,6-dione], for which the Emax was less than 20%.

On to `Cn1c(CN2CCC(c3ccc(C(=O)N4CCC(CN5CCN(Cc6cccc7c6n(C)c(=O)n7C6CCC(=O)NC6=O)CC5)CC4)cc3)CC2)cc2c(-c3ccc4[nH]ncc4c3)ccnc21` (centres unmarked) [Example 3i1, 3-(4-((4-((1-(4-(1-((4-(1H-indazol-5-yl)-1-methyl-1H-pyrrolo[2,3-b]pyridin-2-yl)methyl)-piperidin-4-yl)benzoyl)piperidin-4-yl)methyl)piperazin-1-yl)methyl)-3-methyl-2-oxo-2,3-dihydro-1H-benzo[d]imidazol-1-yl)piperidine-2,6-dione], for which the Emax was in the range of 50 to 60%.

Regarding `Cn1c(CN2CCC(c3ccc(C(=O)N4CCC(N5CCN(Cc6ccc7c(c6)n(C)c(=O)n7C6CCC(=O)NC6=O)CC5)CC4)cc3)CC2)cc2c(-c3ccc4[nH]ncc4c3)ccnc21` (centres unmarked) [Example 3j1, 3-(5-((4-(1-(4-(1-((4-(1H-indazol-5-yl)-1-methyl-1H-pyrrolo[2,3-b]pyridin-2-yl)methyl)piperidin-4-yl)benzoyl)piperidin-4-yl)piperazin-1-yl)methyl)-3-methyl-2-oxo-2,3-dihydro-1H-benzo[d]imidazol-1-yl)piperidine-2,6-dione], the Emax lay in the range of 20 to 30%.

For `Cn1c(CN2CCC(c3ccc(C(=O)N4CCC(N5CCN(Cc6cccc7c6n(C)c(=O)n7C6CCC(=O)NC6=O)CC5)CC4)cc3)CC2)cc2c(-c3ccc4[nH]ncc4c3)ccnc21` (centres unmarked) [Example 3j2, 3-(4-((4-(1-(4-(1-((4-(1H-indazol-5-yl)-1-methyl-1H-pyrrolo[2,3-b]pyridin-2-yl)methyl)piperidin-4-yl)benzoyl)piperidin-4-yl)piperazin-1-yl)methyl)-3-methyl-2-oxo-2,3-dihydro-1H-benzo[d]imidazol-1-yl)piperidine-2,6-dione], the Emax is less than 20%.

For `Cn1c(CN2CCC(c3ccc(C(=O)N4CCN(CC5CCN(Cc6cccc7c6n(C)c(=O)n7C6CCC(=O)NC6=O)CC5)CC4)cc3)CC2)cc2c(-c3ccc4[nH]ncc4c3)ccnc21` (centres unmarked) [Example 3k1, 3-(4-((4-((4-(4-(1-((4-(1H-indazol-5-yl)-1-methyl-1H-pyrrolo[2,3-b]pyridin-2-yl)methyl)-piperidin-4-yl)benzoyl)piperazin-1-yl)methyl)piperidin-1-yl)methyl)-3-methyl-2-oxo-2,3-dihydro-1H-benzo[d]imidazol-1-yl)piperidine-2,6-dione], the Emax fell in the range of 20 to 30%.

With `Cn1c(CN2CCC(c3ccc(C(=O)N4CCC(Cn5cc(-c6cccc7c6n(C)c(=O)n7C6CCC(=O)NC6=O)cn5)CC4)cc3)CC2)cc2c(-c3ccc4[nH]ncc4c3)ccnc21` (centres unmarked) [Example 3l1, 3-(4-(1-((1-(4-(1-((4-(1H-indazol-5-yl)-1-methyl-1H-pyrrolo[2,3-b]pyridin-2-yl)methyl)piperidin-4-yl)benzoyl)piperidin-4-yl)methyl)-1H-pyrazol-4-yl)-3-methyl-2-oxo-2,3-dihydro-1H-benzo[d]imidazol-1-yl)piperidine-2,6-dione], the maximum response (Emax) was in the range of 20 to 30%.
